Assay results published in patent publication US8557800B2, “Sphingosine kinase inhibitors” (Apogee Biotechnology Corporation, priority 2005, dated 2013).

Legend:
[1] = system: recombinant human SK; test: Inhibition of recombinant human SK, LC/MS/MS assay; type: biochemical; settings: 6 μg/ml compound
Method in brief: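 Enzyme incubated with unlabeled sphingosine and ATP (1 mM, as in the radiometric format) for 30 min, then stopped and extracted with acetonitrile. S1P quantified by C8 reverse-phase HPLC–MS/MS against C17 sphingosine and C17 S1P internal standards using calibration curves.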

[2] = system: MCF-7 human breast adenocarcinoma cells; test: Cytotoxicity, SRB binding assay; type: cell-based; settings: MCF7, inhibition of cell proliferation, 48 h, read-out: MCF-7 IC50
Method in brief: (§1)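 Cells exposed to varying compound doses for 48 h, then survival measured by sulforhodamine B staining. IC50 is the concentration giving 50% proliferation inhibition, in μM, as mean±sd of replicate trials.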

[3] = system: MCF-10A non-transformed human breast epithelial cells; test: Cytotoxicity, SRB binding assay; type: cell-based; settings: inhibition of cell proliferation, 48 h, read-out: MCF-10A IC50
Method in brief: as §1

| SMILES | Recombinant SK (% inhibition) [1] | IC50 [2] | IC50 [3] |
| --- | --- | --- | --- |
| CC(C)NC(=O)C12CC3CC(C1)CC(c1ccc(Cl)cc1)(C3)C2 [Compound 1, 3-(4-Chloro-phenyl)-adamantane-1-carboxylic acid isopropylamide] | 38% | 23 µM | 151 µM |
| O=C(Nc1ccccc1)C12CC3CC(C1)CC(c1ccc(Cl)cc1)(C3)C2 [Compound 4, 3-(4-Chloro-phenyl)-adamantane-1-carboxylic acid phenylamide] | 44% | 72 µM | 137 µM |
| O=C(Nc1ccc(O)cc1)C12CC3CC(C1)CC(c1ccc(Cl)cc1)(C3)C2 [Compound 6, 3-(4-Chloro-phenyl)-adamantane-1-carboxylic acid (4-hydroxy-phenyl)-amide] | 72% | 5 µM | 15 µM |
| O=C(Nc1ccc(O)cc1O)C12CC3CC(C1)CC(c1ccc(Cl)cc1)(C3)C2 [Compound 8, 3-(4-Chloro-phenyl)-adamantane-1-carboxylic acid (2,4-dihydroxy-phenyl)-amide] | 49% | 47 µM | 94 µM |
| O=C(Nc1cccc(CO)c1)C12CC3CC(C1)CC(c1ccc(Cl)cc1)(C3)C2 [Compound 9, 3-(4-Chloro-phenyl)-adamantane-1-carboxylic acid (3-hydroxymethyl-phenyl)-amide] | 84% | 9 µM | 17 µM |
| N#CCc1ccc(NC(=O)C23CC4CC(C2)CC(c2ccc(Cl)cc2)(C4)C3)cc1 [Compound 11, 3-(4-Chloro-phenyl)-adamantane-1-carboxylic acid (4-cyanomethyl-phenyl)-amide] | 17% | 87 µM | 87 µM |
| O=C(NCc1ccccc1)C12CC3CC(C1)CC(c1ccc(Cl)cc1)(C3)C2 [Compound 12, 3-(4-Chloro-phenyl)-adamantane-1-carboxylic acid benzylamide] | 36% | 11 µM | 99 µM |
| CC(C)(C)c1ccc(CNC(=O)C23CC4CC(C2)CC(c2ccc(Cl)cc2)(C4)C3)cc1 [Compound 13, 3-(4-Chloro-phenyl)-adamantane-1-carboxylic acid 4-tert-butyl-benzylamide] | 78% | 51 µM | 115 µM |
| CC(NC(=O)C12CC3CC(C1)CC(c1ccc(Cl)cc1)(C3)C2)c1ccc(Br)cc1 (stereo not drawn) [Compound 29, 3-(4-Chloro-phenyl)-adamantane-1-carboxylic acid [1-(4-bromo-phenyl)-ethyl]-amide] | 55% | 7 µM | 106 µM |
| O=C(NCCc1ccccc1)C12CC3CC(C1)CC(c1ccc(Cl)cc1)(C3)C2 [Compound 37, 3-(4-Chloro-phenyl)-adamantane-1-carboxylic acid phenethyl-amide] | 24% | 5 µM | 127 µM |
| O=C(NCCc1ccc(F)cc1)C12CC3CC(C1)CC(c1ccc(Cl)cc1)(C3)C2 [Compound 38, 3-(4-Chloro-phenyl)-adamantane-1-carboxylic acid [2-(4-fluoro-phenyl)-ethyl]-amide] | 40% | 9 µM | 40 µM |
| O=C(NCCc1ccc(Br)cc1)C12CC3CC(C1)CC(c1ccc(Cl)cc1)(C3)C2 [Compound 39, 3-(4-Chloro-phenyl)-adamantane-1-carboxylic acid [2-(4-bromo-phenyl)-ethyl]-amide] | 19% | 15 µM | 106 µM |
| O=C(NCCc1ccc(O)cc1)C12CC3CC(C1)CC(c1ccc(Cl)cc1)(C3)C2 [Compound 40, 3-(4-Chloro-phenyl)-adamantane-1-carboxylic acid [2-(4-hydroxy-phenyl)-ethyl]-amide] | 100% | 6 µM | 37 µM |
| CN1CCN(NC(=O)C23CC4CC(C2)CC(c2ccc(Cl)cc2)(C4)C3)CC1 [Compound 52, 3-(4-Chloro-phenyl)-adamantane-1-carboxylic acid (4-methyl-piperazin-1-yl)-amide] | 54% | 10 µM | 15 µM |
| O=C(NCCN1CCOCC1)C12CC3CC(C1)CC(c1ccc(Cl)cc1)(C3)C2 [Compound 58, 3-(4-Chloro-phenyl)-adamantane-1-carboxylic acid (2-morpholin-4-yl-ethyl)-amide] | 67% | 20 µM | 36 µM |
| O=C(NCCc1ccncc1)C12CC3CC(C1)CC(c1ccc(Cl)cc1)(C3)C2 [Compound 64, 3-(4-Chloro-phenyl)-adamantane-1-carboxylic acid (2-pyridin-4-yl-ethyl)-amide] | 41% | 8 µM | 20 µM |
| Cc1cc2cc(NC(=O)C34CC5CC(C3)CC(c3ccc(Cl)cc3)(C5)C4)ccc2[nH]1 [Compound 66, 3-(4-Chloro-phenyl)-adamantane-1-carboxylic acid (2-methyl-1H-indol-5-yl)-amide] | 92% | 19 µM | 53 µM |
| CCn1c2ccccc2c2cc(NC(=O)C34CC5CC(C3)CC(c3ccc(Cl)cc3)(C5)C4)ccc21 [Compound 68, 3-(4-Chloro-phenyl)-adamantane-1-carboxylic acid (9-ethyl-9H-carbazol-3-yl)-amide] | 17% | 54 µM | 104 µM |
| O=C(Nc1nc(-c2ccc(Cl)cc2)cs1)C12CC3CC(CC(C3)C1)C2 [Compound 69, Adamantane-1-carboxylic acid [4-(4-chloro-phenyl)-thiazol-2-yl]-amide] | 40% | 30 µM | 106 µM |
| O=C(Nc1nc(-c2ccc(Cl)cc2)cs1)C12CC3CC(C1)CC(c1ccc(Cl)cc1)(C3)C2 [Compound 70, 3-(4-Chloro-phenyl)-adamantane-1-carboxylic acid [4-(4-chloro-phenyl)-thiazol-2-yl]-amide] | 33% | 7 µM | 103 µM |
| O=C(Nc1nc2ccccc2s1)C12CC3CC(C1)CC(c1ccc(Cl)cc1)(C3)C2 [Compound 71, 3-(4-Chloro-phenyl)-adamantane-1-carboxylic acid benzothiazol-2-ylamide] | 27% | 21 µM | 118 µM |
| O=C(Nc1nc2cc(Cl)ccc2o1)C12CC3CC(C1)CC(c1ccc(Cl)cc1)(C3)C2 [Compound 72, 3-(4-Chloro-phenyl)-adamantane-1-carboxylic acid (5-chloro-benzooxazol-2-yl)-amide] | 14% | 2 µM | 6 µM |
| Clc1ccc(C23CC4CC(CC(CNCCN5CCOCC5)(C4)C2)C3)cc1 [Compound 87, [3-(4-Chloro-phenyl)-adamantan-1-ylmethyl]-(2-morpholin-4-yl-ethyl)-amine] | 75% | 38 µM | 33 µM |
| Clc1ccc(-c2cnc(NCC34CC5CC(C3)CC(c3ccc(Cl)cc3)(C5)C4)s2)cc1 [Compound 90, [3-(4-Chloro-phenyl)-adamantan-1-ylmethyl]-[5-(4-chloro-phenyl)-thiazol-2-yl]-amine] | 26% | 96 µM | 107 µM |
| CCn1c2ccccc2c2cc(NC(C)C34CC5CC(CC(c6ccc(Cl)cc6)(C5)C3)C4)ccc21 (stereo not drawn) [Compound 114, {1-[3-(4-Chloro-phenyl)-adamantan-1-yl]-ethyl}-(9-ethyl-9H-carbazol-3-yl)-amine] | 33% | 55 µM | 9 µM |
